{
  "source": "patent EP2871962B1",
  "about": "“WOOD PROTECTION AGAINST MICROORGANISMS BY LACCASE-CATALYSED IODINATION” (EMPA Eidgenössische Materialprüfungs- und Forschungsanstalt, priority 2012, dated 2013)",
  "key": {"O. placenta [1]": {"system": "O. placenta", "assay": "Biotests 2: mini-wood block decay test (comparable with EN 113), mass loss", "assay_type": "cell-based, Oligoporus placenta", "conditions": "wood batch 2, non-leached and leached, 12 weeks incubation; numbers only in Figure 2", "description": "(§1) Wood specimens (batch 1: 10 x 10 x 5 mm, length x width x height used in the biotests 1 and batch 2: 20 x 15 x 10 mm used in the biotests 2), free of defects, were extracted longitudinally from boards of Norway spruce trees grown in Switzerland, in order to minimize the influence of natural variability. All specimens were conditioned at 23C°(±1°C) and 50% (±5%) relative humidity (RH) until they reached an equilibrium moisture content of approximately 8-10%. Prior to the wood treatment the specimens were sterilized by autoclaving for 20min at 121°C(±1°C).\n(§2) The enzymatic wood iodination and polymerisation were carried out by dipping three wood specimens of batch 1 in 30ml or 12 wood specimens of batch 2 in 200ml reaction solution (pH 4-6) containing one of the phenolic compounds (4mM), or potassium iodide (1 or 50mM) in the presence of laccase (10U ml^-1) and either 10µM ABTS for batch 1 or 100µM ACS for batch 2 under shaking (100rpm) for 18h at room temperature. […]\n(§3) The treated wood was aseptically added to fully colonised Petri dishes (135mm diameter, 2% malt extract agar (MEA)) by O. placenta and T. versicolor respectively and incubated at 22C° and 70% RH. The ability of the wood-decay fungi to degrade the wood was determined gravimetrically after incubation periods of 6 and 12 weeks and expressed as mass loss (%) according to EN 113 (31): Mass loss(%) = (m0 −m1)/(m0)⋅100 [formula] […]"}, "[2]": {"system": "A. pullulans, C. picea, C. herbarum and D. pinicola", "assay": "Biotests 2: blue stain test of treated wood (EN 152-2, modified)", "assay_type": "cell-based", "conditions": "6 weeks of incubation, mean of stain categories 0-5 ±SE, n = 6, Mediator = ACS (50 µM); for Blue stain discoloration, Leached: wood batch 2, leached (EN 84); for Blue stain discoloration, Non-leached: wood batch 2, non-leached", "description": "as §1\nThe enzymatic wood iodination and polymerisation were carried out by dipping three wood specimens of batch 1 in 30ml or 12 wood specimens of batch 2 in 200ml reaction solution (pH 4-6) containing one of the phenolic compounds (4mM), or potassium iodide (1 or 50mM) in the presence of laccase ([…]) for 18h at room temperature. Furthermore, to test the suitability of HBA (5mM) as mediator some additional experiments were performed. The chemical preservative VP 7/ 260a containing IPBC and propiconazole as active agents was used as a benchmark with a final concentration of 5% (v/v). The wood specimens were treated and used in the biological tests, with the following modifications: • Control = Wood treated with buffer • L = Wood treated with laccase alone • L-M = Wood treated with laccase and mediator • Iso = Wood treated with isoeugenol • Iso-L = Wood treated with isoeugenol and laccase • Iso-L-M = Wood treated with isoeugenol, laccase and mediator • Thy = Wood treated with thymol • Thy-L = Wood treated with thymol and laccase • Thy-L-M = Wood treated with thymol and laccase and mediator • Ix = Wood treated with 1 or 50mM iodide (x = concentration of iodide) • Ix-L = Wood treated with 1 or 50mM iodide and laccase • Ix-L-M = Wood treated with 1 or 50mM iodide, laccase and mediator • VP7 = Wood treated with VP 7/ 260a (IPBC and propiconazole)\nAfter the reaction all wood specimens of batch 1 had undergone a leaching procedure comprising five cycles of incubation in ddH2O (liquid volume min. 10 times the specimen volume, 100rpm, room temperature, 24h) and water exchange. Half of the wood specimens of batch 2 were exposed to leaching for two weeks including nine steps of water changing according to EN 84 (29), the other half was used without leaching in biotests.\nThe resistance of the treated wood against blue stain and wood decay fungi was determined in biotests 2 according to the European standards EN 152-2 (30) and EN 113 (31) with slight modifications. The EN 152 is a classical test for blue staining, originally intended to determine the effectiveness of a preservative treatment against blue stain in service. The treated wood samples were dipped into a spore suspension of A. pullulans, C. picea, C. herbarum and D. pinicola (cfu: > 10^5) and placed horizontally in a Kolle flask containing vermiculite (18g) which was inoculated additionally with 40ml of the spore suspension. The incubated specimens were stored in an incubation room at 22°C and 70% RH (6 weeks). After incubation the surface was evaluated by classifying the percentage of blue-stain discolouration from 0 to 5 according to Thwaites et al. (32) (Table 1). Table 1: Determination of the blue stain discoloration"}, "E. coli": {"system": "E. coli", "assay": "Biotests 1: stamping test of treated, leached wood on agar", "assay_type": "cell-based, Escherichia coli (ATCC 11229)", "conditions": "wood batch 1 exposed to leaching; 18h contact; mean of grades 0-4 ±SE, n = 3; Mediator = ABTS (10 µM)", "description": "(§4) Wood specimens (batch 1: 10 x 10 x 5 mm, length x width x height used in the biotests 1 and batch 2: 20 x 15 x 10 mm used in the biotests 2), free of defects, were extracted longitudinally from boards of Norway spruce trees grown in Switzerland, in order to minimize the influence of natural variability. All specimens were conditioned at 23C°(±1°C) and 50% (±5%) relative humidity (RH) until they reached an equilibrium moisture content of approximately 8-10%. Prior to the wood treatment the specimens were sterilized by autoclaving for 20min at 121°C(±1°C). […]\n(§5) The evaluation of the antimicrobial activity against the bacteria E. coli and S. aureus and the yeast S. cerevisiae of the iodinated and polymerised wood was performed in biotests 1. […] Growth on agar plates was visually determined after incubation for 20-28h at the optimal temperature, giving the following growth values: 0 = no growth; 1 = weak growth; 2 = intermediate growth; 3 = strong growth and 4 = stamping area completely overgrown."}, "T. versicolor [3]": {"system": "T. versicolor", "assay": "Biotests 2: mini-wood block decay test (comparable with EN 113), mass loss", "assay_type": "cell-based, Trametes versicolor", "conditions": "wood batch 2, non-leached and leached, 12 weeks incubation; numbers only in Figure 2", "description": "as §1, §2, §3"}, "T. versicolor [4]": {"system": "T. versicolor", "assay": "Growth inhibition on supplemented malt extract agar plates (Example 1)", "assay_type": "cell-based, Trametes versicolor", "conditions": "2% MEA; phenolic derivatives 4mM, VP 7/ 260a 5% (v/v); without wood; ±SE, n = 3", "description": "(§6) In addition to the mentioned biotests 2 the antimicrobial activity of the reaction derivatives without wood was evaluated on agar plates (5), excluding the laccase-catalysed iodine solution. It was assumed that the iodine molecules would react with starch from malt to form polyiodide chains, which would prevent the antimicrobial effect (33). The laccase catalysis of the phenols was performed under shaking for 18h at room temperature as described above and the phenolic derivatives were added to 2% MEA after autoclaving to a final concentration of 4mM. The fungicide VP 7/ 260a were added to a concentration of 5% (v/v). The supplemented Petri dishes were inoculated in the centre with a mycelium agar disc (5mm diameter) taken from the sub-margin of 14 day old cultures of the ascomycetes A. pullulans and D. pinicola and the basidiomycetes O. placenta and T. versicolor. The fungal growth was estimated by measuring the colony diameter and the growth inhibition was expressed as % of reference grown on non-supplemented malt agar."}, "D. pinicola": {"system": "D. pinicola", "assay": "Growth inhibition on supplemented malt extract agar plates (Example 1)", "assay_type": "cell-based, Discula pinicola", "conditions": "2% MEA; phenolic derivatives 4mM, VP 7/ 260a 5% (v/v); without wood; ±SE, n = 3", "description": "as §6"}, "O. placenta [5]": {"system": "O. placenta", "assay": "Growth inhibition on supplemented malt extract agar plates (Example 1)", "assay_type": "cell-based, Oligoporus placenta", "conditions": "2% MEA; phenolic derivatives 4mM, VP 7/ 260a 5% (v/v); without wood; ±SE, n = 3", "description": "as §6"}, "A. alternata": {"system": "A. alternata", "assay": "Growth inhibition on supplemented malt extract agar plates (Example 1)", "assay_type": "cell-based", "conditions": "2% MEA; phenolic derivatives 4mM, VP 7/ 260a 5% (v/v); without wood; ±SE, n = 3"}, "S. aureus": {"system": "S. aureus", "assay": "Biotests 1: stamping test of treated, leached wood on agar", "assay_type": "cell-based, Staphylococcus aureus (ATCC 6583)", "conditions": "wood batch 1 exposed to leaching; 18h contact; mean of grades 0-4 ±SE, n = 3; Mediator = ABTS (10 µM)", "description": "as §4, §5"}, "S. cerevisiae": {"system": "S. cerevisiae", "assay": "Biotests 1: stamping test of treated, leached wood on agar", "assay_type": "cell-based, Saccharomyces cerevisiae A.C. van Wijk (DSM 70449)", "conditions": "wood batch 1 exposed to leaching; 18h contact; mean of grades 0-4 ±SE, n = 3; Mediator = ABTS (10 µM)", "description": "as §4, §5"}},
  "note": "Several values for one entry are separate records, joined by “and”; a condition that tells them apart may be missing. Equal values may be shown once.",
  "data": [
    {"smiles": "CC=Cc1ccc(O)c(OC)c1", "note": "[Iso, isoeugenol]", "values": [
      {"measurement": "mass loss of wood caused by O. placenta (result in words)", "setting": "O. placenta [1]", "value": "minor effect"},
      {"measurement": "Blue stain discoloration, Leached", "setting": "[2]", "value": "3.4 and 3.4 ±0.5"},
      {"measurement": "Growth values after stamping, E. coli", "setting": "E. coli", "value": "4.0 and 4.0 ±0.0"},
      {"measurement": "mass loss of wood caused by T. versicolor (result in words)", "setting": "T. versicolor [3]", "value": "minor effect"},
      {"measurement": "Growth inhibition [%] on agar plate compared to control, T. versicolor", "setting": "T. versicolor [4]", "value": "100 ±0.0", "unit": "%"},
      {"measurement": "Growth inhibition [%] on agar plate compared to control, D. pinicola", "setting": "D. pinicola", "value": "100 ±0.0", "unit": "%"},
      {"measurement": "Growth inhibition [%] on agar plate compared to control, O. placenta", "setting": "O. placenta [5]", "value": "100 ±0.0", "unit": "%"},
      {"measurement": "Growth inhibition [%] on agar plate compared to control, A. alternata", "setting": "A. alternata", "value": "100 ±0.0", "unit": "%"}
    ]},
    {"smiles": "Cc1ccc(C(C)C)c(O)c1", "note": "[Thy, thymol]", "values": [
      {"measurement": "mass loss of wood caused by O. placenta (result in words)", "setting": "O. placenta [1]", "value": "minor effect"},
      {"measurement": "Blue stain discoloration, Leached", "setting": "[2]", "value": "3.5 and 3.5 ±0.3"},
      {"measurement": "Blue stain discoloration, Non-leached", "setting": "[2]", "value": "2.5 and 2.5 ±0.6"},
      {"measurement": "mass loss of wood caused by T. versicolor (result in words)", "setting": "T. versicolor [3]", "value": "minor effect"},
      {"measurement": "Growth inhibition [%] on agar plate compared to control, T. versicolor", "setting": "T. versicolor [4]", "value": "100 ±0.0", "unit": "%"},
      {"measurement": "Growth inhibition [%] on agar plate compared to control, D. pinicola", "setting": "D. pinicola", "value": "100 ±0.0", "unit": "%"},
      {"measurement": "Growth inhibition [%] on agar plate compared to control, O. placenta", "setting": "O. placenta [5]", "value": "100 ±0.0", "unit": "%"},
      {"measurement": "Growth inhibition [%] on agar plate compared to control, A. alternata", "setting": "A. alternata", "value": "100 ±0.0", "unit": "%"}
    ]},
    {"smiles": "[I-].[K+]", "note": "[I50, potassium iodide]", "values": [
      {"measurement": "Growth values after stamping, S. aureus", "setting": "S. aureus", "value": "3.0 ±0.6"},
      {"measurement": "Blue stain discoloration, Leached", "setting": "[2]", "value": "3.3 ±0.3"},
      {"measurement": "Blue stain discoloration, Non-leached", "setting": "[2]", "value": "0.8 ±0.4"},
      {"measurement": "Growth values after stamping, E. coli", "setting": "E. coli", "value": "4.0 ±0.0"},
      {"measurement": "Growth values after stamping, S. cerevisiae", "setting": "S. cerevisiae", "value": "2.7 ±0.3"}
    ]}
  ]
}
